This passage reports EC50 results from patent publication US8815909B2, “Diaminocyclohexane compounds and uses thereof” (Bristol-Myers Squibb Company, priority 2011, dated 2014).

Molecules are shown by their SMILES. Where a name gives a salt, the structure may show the parent alone. Read-outs that look alike come from different tables or passages of the source.

For this assay, the target named is T1, human Y4 receptor (Homo sapiens, UniProt P50391).
T1 construct: expressed in transfected cells
Description: NPY4 cAMP HTRF Agonist Assay (inhibitory cAMP assay, Gi activation by Y4 agonism). It counts as cell-based. As for the experimental part: NPY4 cAMP HTRF Agonist Assay
The functionality of the compound at Y4 receptor was analyzed using a inhibitory cAMP assay (CISBIO, HTRF cAMP kit #62AM4PEC) to measure the Gi activation by Y4 agonism.
The human Y4 stable CHO clonal cells were maintained in culture medium (F-12 containing 10% Fetal Bovine Serum, […] GENETICIN®, […] Zeocin). Before the experiment, 5 μL of 1 uM Forskolin (Sigma, # F6886) and 100 uM IBMX (Sigma, # I5879) in PBS buffer were added into 384-well plates (PE, Proxi-plate) that were pre-dotted with 100 nL compounds. The cells were removed from the flasks by Cellstripper, counted and adjusted to 1.0×10^6 cells/mL in PBS buffer, and added 5 μL/well (5000 cells/well) into the above 384-well plates. The cells were then covered and incubated for 30 minutes at room temperature. After incubation, 5 μL/well of D2-conjugate in HTRF lysis buffer was first added, followed by adding 5 μL/well of anti-cAMP Cryptate in HTRF lysis buffer. The plates were incubated for another 1 hour at room temperature and read on the EnVision Multilabel Plate Reader.
Compounds described herein were tested in the above assay.
In general terms: In TR-FRET formats the signal depends on donor and acceptor labels being close together.

Setting [1] is: human Y4 receptor, cAMP, read-out: hY4 CAMP EC50.
Setting [2] is: TABLE 4, R2 is Pyridinyl-CN, read-out: hY4 CAMP EC50.
Where [3] appears, read: TABLE 2, R2 is Phenyl-CN, read-out: hY4 CAMP EC50.
Setting [4] is: second TABLE 1, R2 is Phenyl-CF3, read-out: hY4 CAMP EC50.
The mark [5] stands for this setting: human Y4 stable CHO clonal cells, forskolin + IBMX, read-out: NPY4 cAMP HTRF Agonist Assay EC50.
The mark [6] stands for this setting: TABLE 5, R2 is Pyridinyl-CF3, read-out: hY4 CAMP EC50.

T1 sequence (P50391 whole entry): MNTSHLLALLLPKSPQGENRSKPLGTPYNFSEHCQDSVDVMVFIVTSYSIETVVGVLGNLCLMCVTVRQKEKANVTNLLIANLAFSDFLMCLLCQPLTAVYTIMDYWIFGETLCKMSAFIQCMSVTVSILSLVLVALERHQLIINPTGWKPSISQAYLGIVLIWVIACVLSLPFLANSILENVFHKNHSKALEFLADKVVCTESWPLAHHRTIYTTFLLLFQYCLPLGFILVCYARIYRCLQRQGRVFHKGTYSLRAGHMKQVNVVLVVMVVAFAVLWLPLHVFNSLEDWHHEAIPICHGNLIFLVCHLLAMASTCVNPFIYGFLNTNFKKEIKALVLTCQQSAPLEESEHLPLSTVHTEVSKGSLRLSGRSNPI

For `Cc1nnc(-c2ccc(N3CCC[C@H](N[C@@H]4CCCC[C@H]4Nc4cc(Br)ccn4)C3)cc2)o1` [Example 352], under setting [1], the concentration for a half-maximal effect (EC50) (usually the concentration giving half of the maximal effect) is 318 nM.
Take `N#Cc1cc(N2CCC[C@H](N[C@@H]3CCCC[C@H]3Nc3ncc(-c4ccc(OC(F)(F)F)cc4)o3)C2)ccn1` [Example 307]: the EC50 under setting [2] was 7 nM.
`N#Cc1ccc(N2CCC[C@H](N[C@@H]3CCCC[C@H]3Nc3cc(-c4cccc5cn[nH]c45)ccn3)C2)cc1` [Example 209]: the EC50 under setting [3] stood at 83 nM.
Take `OCCCCCc1ccnc(N[C@@H]2CCCC[C@H]2N[C@H]2CCCN(c3ccc(C(F)(F)F)cc3)C2)c1` [Example 186]: the EC50 under setting [4] was 115 nM.
For the compound `Cc1nc(-c2ccc(N3CCC[C@](C)(N[C@@H]4CCCC[C@H]4Nc4cc(-c5cccc(C(N)=O)c5)ccn4)C3)cn2)no1` [Example 381], the EC50 (TABLE 7, R2 is Pyridinyl-oxadiazole-CH3, read-out: hY4 CAMP EC50) is 5 nM.
As to `COc1cccc(-c2ccnc(N[C@@H]3CCCC[C@H]3N[C@H]3CCCN(c4ccc(C#N)cc4)C3)c2)c1` [Example 263], the EC50 under setting [3] was 87 nM.
For `N#Cc1ccc(N2CCC[C@H](N[C@@H]3CCCC[C@H]3Nc3cc4ccccc4cn3)C2)cc1` [Example 281], the EC50 under setting [3] was 152 nM.
In the case of `O=[N+]([O-])c1ccc(N2CCC[C@H](N[C@@H]3CCCC[C@H]3Nc3cc(-c4ccccc4)ccn3)C2)cc1` [Example 25, (1R,2R)—N1-((S)-1-(4-Nitrophenyl)piperidin-3-yl)-N2-(4-phenylpyridin-2-yl)cyclohexane-1,2-diamine], the EC50 under setting [5] was 14 nM.
As for `FC(F)(F)Oc1ccc(-c2cnc(N[C@@H]3CCCC[C@H]3N[C@H]3C[C@@H]4C[C@H]3N(c3ccc(C(F)(F)F)cn3)C4)o2)cc1` [Example 338], under setting [6], the concentration giving a half-maximal response (EC50) was determined as 226 nM.
For the compound `Cc1noc(-c2ccc(N3CCC[C@H](N[C@@H]4CCCC[C@H]4Nc4cc(-c5cccc(OC(F)(F)F)c5)ccn4)C3)cc2)n1` [Example 363], the EC50 under setting [1] was determined as 314 nM.
On to `CNC(=O)c1cccc(-c2cnc(N[C@@H]3CCCC[C@H]3N[C@H]3CCCN(c4ccc5nc(C)nn5c4)C3)o2)c1` [Example 496], for which, under setting [1], the EC50 amounted to 4 nM.
Same read-out and setting: then `Cc1nc(-c2ccc(N3C[C@@H]4C[C@H](N[C@@H]5CCCC[C@H]5Nc5nccc(-c6ccccc6)n5)[C@H]3C4)cc2)no1` [Example 350], with 9 nM.
For the compound `O=[N+]([O-])c1ccc(N2CCC[C@H](N[C@@H]3CCCC[C@H]3Nc3ncc(-c4cccc(OC(F)(F)F)c4)o3)C2)cc1` [Example 22, (1R,2R)—N1-((S)-1-(4-Nitrophenyl)piperidin-3-yl)-N2-(5-(3-(trifluoromethoxy)phenyl)oxazol-2-yl)cyclohexane-1,2-diamine], the EC50 under setting [5] came out at 43 nM.
As for `N#Cc1ccc(N2C[C@@H]3C[C@H](N[C@@H]4CCCC[C@H]4Nc4ncc(-c5cccc(C#N)c5)o4)[C@H]2C3)cc1` [Example 266], the EC50 under setting [3] was determined as 181 nM.
Regarding `CNC(=O)c1cccc(-c2cnc(N[C@@H]3CCCC[C@H]3N[C@H]3CCCN(c4cnc(C(F)(F)F)nc4)C3)o2)c1` [Example 409], the 50% effective concentration (EC50) under setting [1] stood at 4 nM.
`O=[N+]([O-])c1ccc(N2CCC[C@H](N[C@@H]3CCCC[C@H]3Nc3nc4cc(OC(F)(F)F)ccc4o3)C2)cc1` [Example 4, (1R,2R)—N1-((S)-1-(4-Nitrophenyl)piperidin-3-yl)-N2-(5-(trifluoromethoxy)benzo[d]oxazol-2-yl)cyclohexane-1,2-diamine]: the EC50 under setting [5] amounted to 236 nM.
Regarding `N#Cc1ccc(N2CCC[C@H](N[C@@H]3CCCC[C@H]3Nc3ncc(-c4ccccc4)s3)C2)cc1` [Example 42, 4-((S)-3-((1R,2R)-2-(5-Phenylthiazol-2-ylamino)cyclohexylamino)piperidin-1-yl)benzonitrile], the EC50 under setting [5] was 45 nM.
As to `COC(=O)Nc1cccc(-c2ccnc(N[C@@H]3CCCC[C@H]3N[C@H]3CCCN(c4ccc(Br)cc4)C3)c2)c1` [Example 513], under setting [1], the half-maximal effective concentration (EC50) stood at 2 nM.
With `N#Cc1cnc(N[C@@H]2CCCC[C@H]2N[C@H]2CCCN(c3ccc(C(F)(F)F)cc3)C2)o1` [Example 113, 2-(((1R,2R)-2-(((S)-1-(4-(trifluoromethyl)phenyl)piperidin-3-yl)amino)cyclohexyl)amino)oxazole-5-carbonitrile], the EC50 under setting [5] is 91 nM.
With `FC(F)(F)c1ccc(N2CCC[C@H](N[C@@H]3CCCC[C@H]3Nc3cc(-c4cccc(N5CCCC5)c4)ccn3)C2)cc1` [Example 164], under setting [4], the EC50 came to 104 nM.
On to `NC(=O)c1cccc(-c2cnc(N[C@@H]3CCCC[C@H]3N[C@H]3CCCN(c4ccc5ncnn5c4)C3)o2)c1` [Example 480], for which the EC50 under setting [1] was determined as 17 nM.
For the compound `NC(=O)c1cccc(-c2ccnc(N[C@@H]3CCCC[C@H]3N[C@H]3CCCN(c4ccc(-n5cccn5)cc4)C3)c2)c1` [Example 511], under setting [1], the EC50 is 23 nM.
As to `CCOC(=O)Nc1cccc(-c2cnc(N[C@@H]3CCCC[C@H]3N[C@H]3CCCN(c4ccc(C(F)(F)F)cc4)C3)o2)c1` [Example 101, Ethyl (3-(2-((1R,2R)-2(S)-1-(4-trifluoromethyl)phenylpiperidin-3-ylamino)cyclohexylamino)oxazol-5-yl)phenylcarbamate], the EC50 under setting [5] was determined as 2 nM.
Regarding `C[C@]1(N[C@@H]2CCCC[C@H]2Nc2cc(-c3cccc(C(N)=O)c3)ccn2)CCCN(c2ncc(C(F)(F)F)cn2)C1` [Example 400], the EC50 under setting [1] is 28 nM.
For the compound `CC(C)(C)OC(=O)Nc1cccc(-c2cnc(N[C@@H]3CCCC[C@H]3N[C@H]3CCCN(c4ccc(C(F)(F)F)cc4)C3)o2)c1` [Example 169], under setting [4], the EC50 stood at 32 nM.
As to `C[C@]1(N[C@@H]2CCCC[C@H]2Nc2cc(-c3cccc(C(N)=O)c3)ccn2)CCCN(c2ccc(C#N)cn2)C1` [Example 301], the EC50 under setting [2] was determined as 66 nM.
In the case of `COC(=O)N(C)c1cccc(-c2ccnc(N[C@@H]3CCCC[C@H]3N[C@H]3CCCN(c4ccc(C(F)(F)F)cc4)C3)c2)c1` [Example 173], under setting [4], the 50% effective concentration (EC50) came out at 920 nM.
As to `CCOC(=O)Nc1cccc(-c2ccnc(N[C@@H]3CCCC[C@H]3N[C@H]3CCCN(c4ccc(C(F)(F)F)cc4)C3)c2)c1` [Example 136], the half-maximal effective concentration (EC50) under setting [4] worked out at 2 nM.
Take `O=C(NC1CCCC1)c1cccc(-c2ccnc(N[C@@H]3CCCC[C@H]3N[C@H]3CCCN(c4ccc(C(F)(F)F)cc4)C3)c2)c1` [Example 150]: the EC50 under setting [4] came to 192 nM.
For the compound `CC(C)(C)OC(=O)/C=C/c1ccnc(N[C@@H]2CCCC[C@H]2N[C@H]2CCCN(c3ccc(C#N)cc3)C2)c1` [Example 109, (E)-tert-butyl 3-(2-(((1R,2R)-2-(((S)-1-(4-cyanophenyl)piperidin-3-yl)amino)cyclohexyl)amino)pyridin-4-yl)acrylate], the EC50 under setting [5] came to 119 nM.
For the compound `CC(=O)N(C)c1cccc(-c2ccnc(N[C@@H]3CCCC[C@H]3N[C@H]3CCCN(c4ccc(C(F)(F)F)cc4)C3)c2)c1` [Example 174], the EC50 under setting [4] turned out to be 363 nM.
For the compound `COc1ccc(-c2ccnc(N[C@@H]3CCCC[C@H]3N[C@H]3CCCN(c4ccc(C#N)cc4)C3)n2)cc1` [Example 58, 4-((S)-3-((1R,2R)-2-(4-(4-Methoxyphenyl)pyrimidin-2-ylamino)cyclohexylamino)piperidin-1-yl)benzonitrile trifluoroacetate], the EC50 under setting [5] was 1170 nM.
Turning to `FC(F)(F)Oc1ccc(N2CCC[C@H](N[C@@H]3CCCC[C@H]3Nc3ncc(-c4ccccc4)o3)C2)cc1` [Example 86, (1R,2R)—N1-(5-Phenyloxazol-2-yl)-N2-((S)-1-(4-(trifluoromethoxy)phenyl)piperidin-3-yl)cyclohexane-1,2-diamine], the 50% effective concentration (EC50) under setting [5] is 91 nM.
Same read-out and setting: then `N#Cc1ccc(N2CCC[C@H](N[C@@H]3CCCC[C@H]3Nc3nccc(-c4ccc(OC(F)(F)F)cc4)n3)C2)cc1` [Example 59, 4-((S)-3-((1R,2R)-2-(4-(4-(Trifluoromethoxy)phenyl)pyrimidin-2-ylamino)cyclohexylamino)piperidin-1-yl)benzonitrile bis-trifluoroacetate], with 297 nM.
As to `COc1ccc(-c2ccnc(N[C@@H]3CCCC[C@H]3N[C@H]3CCCN(c4ccc(C#N)cc4)C3)c2)cn1` [Example 222], under setting [3], the EC50 amounted to 46 nM.
For the compound `N#Cc1ccc(N2C[C@@H]3C[C@H](N[C@@H]4CCCC[C@H]4Nc4ncc(-c5ccc(OC(F)(F)F)cc5)o4)[C@H]2C3)nn1` [Example 443], the EC50 under setting [1] stood at 482 nM.
For the compound `N#Cc1ccc(N2CCC[C@H](N[C@@H]3CCCC[C@H]3Nc3ncc(-c4cccc(C(N)=O)c4)o3)C2)cc1` [Example 265], under setting [3], the EC50 was found to be 2 nM.
Turning to `COC(=O)Nc1cccc(-c2ccnc(N[C@@H]3CCCC[C@H]3N[C@H]3CCCN(c4ccc(-c5ccccc5)cc4)C3)c2)c1` [Example 516], the EC50 under setting [1] came out at 17 nM.
On to `C[C@]1(N[C@@H]2CCCC[C@H]2Nc2ncc(-c3cccc(C(N)=O)c3)o2)CCCN(c2ccc(C(F)(F)F)nc2)C1` [Example 322], for which the EC50 under setting [6] was 2 nM.
Turning to `N#Cc1ccc(N2CCC[C@H](N[C@@H]3CCCC[C@H]3Nc3cc(-c4cccc5[nH]ncc45)ccn3)C2)cc1` [Example 211], the EC50 under setting [3] stood at 22 nM.
In the case of `FC(F)(F)c1ccc(N2CCC[C@H](N[C@@H]3CCCC[C@H]3NC3=NOC(c4ccccc4)C3)C2)cc1` (some centres unmarked) [Example 180], the EC50 under setting [4] turned out to be 54 nM.
